The source of these data is patent publication US20240269139A1, “COMPOUNDS FOR TARGETED PROTEIN DEGRADATION OF KINASES” (DANA-FARBER CANCER INSTITUTE, INC., priority 2020, published 2024).

Each structure is given as a SMILES string. Where two headings read alike, the source gives them in different places.

Common to all, as to assay type: cell-based
For test [1], the target named is T1, protein kinases (human kinome) (Homo sapiens, UniProt Q9UQ88).
T1 sequence (Q9UQ88 1-783): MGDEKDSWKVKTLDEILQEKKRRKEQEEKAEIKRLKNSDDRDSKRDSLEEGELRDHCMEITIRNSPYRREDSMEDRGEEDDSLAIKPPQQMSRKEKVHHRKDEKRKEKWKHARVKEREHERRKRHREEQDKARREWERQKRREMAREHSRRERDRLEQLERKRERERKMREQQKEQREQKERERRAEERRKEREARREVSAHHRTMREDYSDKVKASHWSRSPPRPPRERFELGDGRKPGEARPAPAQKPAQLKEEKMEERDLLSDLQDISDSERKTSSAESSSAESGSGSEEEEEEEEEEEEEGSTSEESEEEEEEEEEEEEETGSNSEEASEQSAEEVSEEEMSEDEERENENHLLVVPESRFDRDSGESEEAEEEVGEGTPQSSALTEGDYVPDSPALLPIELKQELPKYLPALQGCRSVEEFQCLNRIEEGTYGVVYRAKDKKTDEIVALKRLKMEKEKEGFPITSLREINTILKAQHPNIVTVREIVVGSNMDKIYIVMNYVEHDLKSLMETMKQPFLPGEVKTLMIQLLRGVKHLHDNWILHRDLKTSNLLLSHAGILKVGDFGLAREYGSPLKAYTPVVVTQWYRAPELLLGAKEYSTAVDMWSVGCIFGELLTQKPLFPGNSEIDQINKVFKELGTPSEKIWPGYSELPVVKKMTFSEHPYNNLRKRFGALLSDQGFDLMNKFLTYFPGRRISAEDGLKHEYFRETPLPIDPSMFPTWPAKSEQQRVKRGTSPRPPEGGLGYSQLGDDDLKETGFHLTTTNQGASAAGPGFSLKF
The following applies: experiment wp105.

Test [2] has as its target protein kinases (human kinome) (Homo sapiens, UniProt Q16644). The settings on record: experiment wp168.
For test [3], the target named is protein kinases (human kinome) (Homo sapiens, UniProt Q96S53). The settings on record: experiment wp147, 4 uM.
For test [4], the target named is protein kinases (human kinome) (Homo sapiens, UniProt P31749). The following applies: for logFC: AKT1 (P31749).
For test [5], the target named is protein kinases (human kinome) (Homo sapiens, UniProt Q16877). The settings on record: PFKFB4 (Q16877); experiment wp080.
In test [6] the target is protein kinases (human kinome) (Homo sapiens, UniProt Q8IW41). The following applies: experiment wp080.
Test [7] addresses protein kinases (human kinome) (Homo sapiens, UniProt O60307). The settings on record: experiment wp107.
The target in test [8] is protein kinases (human kinome) (Homo sapiens, UniProt P50750).
Test [9] addresses protein kinases (human kinome) (Homo sapiens, UniProt Q13131). The settings on record: for logFC PRKAA1 (Q13131): direction down.
In test [10] the target is protein kinases (human kinome) (Homo sapiens, UniProt Q96RU7).
The target of test [11] is protein kinases (human kinome) (Homo sapiens, UniProt O00418). The following applies: experiment wp137.
Test [12] concerns the target protein kinases (human kinome) (Homo sapiens, UniProt P17948). The settings on record: experiment wp131.
The target of test [13] is protein kinases (human kinome) (Homo sapiens, UniProt P49841).
Test [14] concerns the target protein kinases (human kinome) (Homo sapiens, UniProt P52429). The following applies: protein DGKE (P52429); experiment wp056; down.
Test [15] deals with protein kinases (human kinome) (Homo sapiens, UniProt Q01415). The following applies: protein GALK2 (Q01415-1); experiment wp056; down.

Chain of protein kinases (human kinome) (Homo sapiens, UniProt Q13131) (Q13131 whole entry): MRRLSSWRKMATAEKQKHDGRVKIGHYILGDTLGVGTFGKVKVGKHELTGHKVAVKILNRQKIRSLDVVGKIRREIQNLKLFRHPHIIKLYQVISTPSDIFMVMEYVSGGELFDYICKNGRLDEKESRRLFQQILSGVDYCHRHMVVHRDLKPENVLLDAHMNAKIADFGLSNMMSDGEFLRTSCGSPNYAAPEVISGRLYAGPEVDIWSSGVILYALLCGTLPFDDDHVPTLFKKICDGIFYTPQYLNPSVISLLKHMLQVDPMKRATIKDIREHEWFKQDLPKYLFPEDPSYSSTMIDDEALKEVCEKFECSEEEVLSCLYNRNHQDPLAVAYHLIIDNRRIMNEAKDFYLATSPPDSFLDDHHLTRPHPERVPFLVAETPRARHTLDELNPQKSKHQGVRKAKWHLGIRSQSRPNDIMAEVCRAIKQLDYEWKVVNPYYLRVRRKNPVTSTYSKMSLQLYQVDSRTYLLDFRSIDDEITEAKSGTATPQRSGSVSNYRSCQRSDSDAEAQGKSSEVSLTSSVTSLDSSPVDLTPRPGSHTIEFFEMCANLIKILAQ
Chain of protein kinases (human kinome) (Homo sapiens, UniProt P31749) (P31749 whole entry): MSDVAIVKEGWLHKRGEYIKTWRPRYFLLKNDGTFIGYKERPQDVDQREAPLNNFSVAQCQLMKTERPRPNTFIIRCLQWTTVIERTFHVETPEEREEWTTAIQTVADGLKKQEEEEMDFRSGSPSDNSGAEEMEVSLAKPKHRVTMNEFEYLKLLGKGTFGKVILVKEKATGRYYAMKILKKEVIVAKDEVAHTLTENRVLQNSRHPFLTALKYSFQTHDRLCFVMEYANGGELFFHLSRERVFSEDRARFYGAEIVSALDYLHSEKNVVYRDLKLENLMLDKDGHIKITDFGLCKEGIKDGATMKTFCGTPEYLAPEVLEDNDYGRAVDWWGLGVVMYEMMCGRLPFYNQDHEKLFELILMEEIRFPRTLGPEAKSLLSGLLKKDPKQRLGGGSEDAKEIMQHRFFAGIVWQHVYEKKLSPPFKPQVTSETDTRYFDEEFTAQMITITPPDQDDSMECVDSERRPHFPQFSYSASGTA
Chain of protein kinases (human kinome) (Homo sapiens, UniProt P50750) (P50750 whole entry): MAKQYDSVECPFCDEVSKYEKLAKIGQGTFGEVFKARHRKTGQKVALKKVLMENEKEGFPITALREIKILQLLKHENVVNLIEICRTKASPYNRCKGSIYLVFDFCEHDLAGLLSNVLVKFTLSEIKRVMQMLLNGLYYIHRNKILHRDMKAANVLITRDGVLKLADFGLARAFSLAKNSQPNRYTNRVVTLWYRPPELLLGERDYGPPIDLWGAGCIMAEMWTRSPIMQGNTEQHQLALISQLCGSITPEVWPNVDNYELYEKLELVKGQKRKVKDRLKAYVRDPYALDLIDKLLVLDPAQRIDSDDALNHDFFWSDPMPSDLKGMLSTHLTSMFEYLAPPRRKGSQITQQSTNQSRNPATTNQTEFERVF
Chain of protein kinases (human kinome) (Homo sapiens, UniProt O00418) (O00418 whole entry): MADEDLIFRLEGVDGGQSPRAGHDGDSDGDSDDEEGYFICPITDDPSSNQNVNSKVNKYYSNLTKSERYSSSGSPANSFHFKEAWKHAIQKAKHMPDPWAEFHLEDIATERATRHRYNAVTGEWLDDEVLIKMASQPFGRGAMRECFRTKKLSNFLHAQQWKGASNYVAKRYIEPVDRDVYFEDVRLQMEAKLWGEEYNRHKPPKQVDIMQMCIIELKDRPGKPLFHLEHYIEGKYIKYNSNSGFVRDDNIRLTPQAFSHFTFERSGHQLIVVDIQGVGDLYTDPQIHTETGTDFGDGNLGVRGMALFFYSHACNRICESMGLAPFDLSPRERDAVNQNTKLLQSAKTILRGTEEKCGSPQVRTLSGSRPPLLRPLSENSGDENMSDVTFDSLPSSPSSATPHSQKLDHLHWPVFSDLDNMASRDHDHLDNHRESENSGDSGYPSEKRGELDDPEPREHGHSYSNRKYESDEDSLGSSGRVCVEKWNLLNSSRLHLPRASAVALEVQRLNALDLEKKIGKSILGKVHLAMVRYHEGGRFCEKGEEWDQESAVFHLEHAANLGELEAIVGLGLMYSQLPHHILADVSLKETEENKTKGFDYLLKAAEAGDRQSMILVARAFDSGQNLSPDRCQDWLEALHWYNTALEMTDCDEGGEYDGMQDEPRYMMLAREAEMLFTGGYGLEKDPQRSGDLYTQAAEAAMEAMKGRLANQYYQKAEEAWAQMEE
Chain of protein kinases (human kinome) (Homo sapiens, UniProt O60307) (O60307 whole entry): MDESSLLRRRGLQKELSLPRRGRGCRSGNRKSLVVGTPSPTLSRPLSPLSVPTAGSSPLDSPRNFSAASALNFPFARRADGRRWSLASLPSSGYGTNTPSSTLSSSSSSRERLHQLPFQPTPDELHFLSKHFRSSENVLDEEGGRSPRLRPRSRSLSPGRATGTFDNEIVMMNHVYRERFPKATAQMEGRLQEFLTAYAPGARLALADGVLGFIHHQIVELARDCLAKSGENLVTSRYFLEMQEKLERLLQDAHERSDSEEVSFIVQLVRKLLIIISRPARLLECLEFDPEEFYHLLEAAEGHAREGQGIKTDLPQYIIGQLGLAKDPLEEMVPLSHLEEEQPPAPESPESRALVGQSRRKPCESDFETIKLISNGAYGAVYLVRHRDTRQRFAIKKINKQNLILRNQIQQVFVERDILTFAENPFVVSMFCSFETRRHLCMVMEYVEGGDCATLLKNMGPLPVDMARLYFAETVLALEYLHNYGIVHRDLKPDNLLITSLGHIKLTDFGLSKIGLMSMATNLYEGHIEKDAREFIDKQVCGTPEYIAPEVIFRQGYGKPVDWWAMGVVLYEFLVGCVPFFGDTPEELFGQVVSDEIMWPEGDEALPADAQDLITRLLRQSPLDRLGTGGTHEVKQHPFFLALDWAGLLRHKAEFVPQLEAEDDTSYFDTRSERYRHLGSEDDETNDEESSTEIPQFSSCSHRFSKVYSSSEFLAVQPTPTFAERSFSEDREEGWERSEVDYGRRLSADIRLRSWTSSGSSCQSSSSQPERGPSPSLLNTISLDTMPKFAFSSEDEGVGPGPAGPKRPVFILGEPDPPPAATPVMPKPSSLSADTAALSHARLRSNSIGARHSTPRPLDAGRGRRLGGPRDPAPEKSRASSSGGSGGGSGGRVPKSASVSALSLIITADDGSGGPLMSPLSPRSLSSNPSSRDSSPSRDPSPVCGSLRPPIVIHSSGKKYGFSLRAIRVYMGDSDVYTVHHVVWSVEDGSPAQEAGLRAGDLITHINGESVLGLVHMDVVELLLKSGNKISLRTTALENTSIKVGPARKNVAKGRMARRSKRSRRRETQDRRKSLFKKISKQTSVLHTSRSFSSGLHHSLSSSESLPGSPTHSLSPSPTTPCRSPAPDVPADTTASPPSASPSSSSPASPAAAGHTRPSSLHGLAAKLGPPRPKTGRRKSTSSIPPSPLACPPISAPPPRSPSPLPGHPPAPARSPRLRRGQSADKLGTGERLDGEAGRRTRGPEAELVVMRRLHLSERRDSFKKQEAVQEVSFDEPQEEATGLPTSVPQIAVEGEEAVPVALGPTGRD
Chain of protein kinases (human kinome) (Homo sapiens, UniProt Q8IW41) (Q8IW41 whole entry): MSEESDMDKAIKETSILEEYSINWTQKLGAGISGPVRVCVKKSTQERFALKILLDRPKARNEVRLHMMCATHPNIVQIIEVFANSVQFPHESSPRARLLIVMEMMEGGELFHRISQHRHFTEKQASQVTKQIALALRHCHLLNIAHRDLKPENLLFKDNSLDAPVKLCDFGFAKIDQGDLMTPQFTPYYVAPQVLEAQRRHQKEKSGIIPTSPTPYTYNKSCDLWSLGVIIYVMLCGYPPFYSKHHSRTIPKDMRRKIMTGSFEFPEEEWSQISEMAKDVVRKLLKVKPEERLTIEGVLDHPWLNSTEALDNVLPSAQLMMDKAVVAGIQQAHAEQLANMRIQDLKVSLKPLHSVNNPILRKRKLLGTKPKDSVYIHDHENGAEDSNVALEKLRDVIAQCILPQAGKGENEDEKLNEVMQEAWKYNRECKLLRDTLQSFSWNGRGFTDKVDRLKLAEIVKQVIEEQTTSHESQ
Chain of protein kinases (human kinome) (Homo sapiens, UniProt Q96RU7) (Q96RU7 whole entry): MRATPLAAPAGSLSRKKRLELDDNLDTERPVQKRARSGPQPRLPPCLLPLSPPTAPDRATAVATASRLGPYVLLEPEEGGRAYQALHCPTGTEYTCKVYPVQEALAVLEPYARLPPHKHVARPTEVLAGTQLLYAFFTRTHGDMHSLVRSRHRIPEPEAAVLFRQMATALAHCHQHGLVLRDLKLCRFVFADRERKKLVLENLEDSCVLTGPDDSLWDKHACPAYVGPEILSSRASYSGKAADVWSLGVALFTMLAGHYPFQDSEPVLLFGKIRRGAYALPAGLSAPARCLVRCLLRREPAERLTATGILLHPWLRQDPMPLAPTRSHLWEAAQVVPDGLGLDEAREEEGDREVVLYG
Chain of protein kinases (human kinome) (Homo sapiens, UniProt P49841) (P49841 whole entry): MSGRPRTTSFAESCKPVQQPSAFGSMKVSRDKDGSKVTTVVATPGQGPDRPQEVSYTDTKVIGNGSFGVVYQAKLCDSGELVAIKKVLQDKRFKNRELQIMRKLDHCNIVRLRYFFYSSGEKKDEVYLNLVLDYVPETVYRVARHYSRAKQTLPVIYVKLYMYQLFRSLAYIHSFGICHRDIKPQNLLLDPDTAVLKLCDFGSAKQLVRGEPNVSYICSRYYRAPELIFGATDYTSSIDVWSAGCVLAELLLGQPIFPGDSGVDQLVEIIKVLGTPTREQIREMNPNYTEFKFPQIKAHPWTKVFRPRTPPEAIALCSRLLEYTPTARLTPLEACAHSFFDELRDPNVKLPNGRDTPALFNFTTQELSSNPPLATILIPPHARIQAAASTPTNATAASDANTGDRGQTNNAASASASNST

Take `Cc1ccc(NC(=O)c2cccc(C(F)(F)F)c2)cc1N1Cc2cnc(Nc3ccc(N4CCN(Cc5cn(CCCCCOc6cccc7c6C(=O)N(C6CCC(=O)NC6=O)C7=O)nn5)CC4)nc3)nc2N(C)C1=O` (stereo not shown) [DB0646, N-(3-(7-((6-(4-((1-(5-((2-(2,6-Dioxopiperidin-3-yl)-1,3-dioxoisoindolin-4-yl)oxy)pentyl)-1H-1,2,3-triazol-4-yl)methyl)piperazin-1-v)pyridin-3-yl)amino)-1-methyl-2-oxo-1,4-dihydropyrimido[4,5-d]pyrimidin-3(2H)-yl)-4-methylphenyl)-3-(trifluoromethyl)benzamide]: in test [1] (CDK11A (Q9UQ88-1)), the logFC was −0.868. Further, the “logFC of CDK11A (Q9UQ88-1)” value in [1] is reported as −0.868.

Consider `Cc1ccc(NC(=O)c2cccc(C(F)(F)F)c2)cc1N1Cc2cnc(Nc3ccc(N4CCN(CCCCC(=O)N[C@H](C(=O)N5C[C@H](O)C[C@H]5C(=O)N[C@@H](C)c5ccc(-c6scnc6C)cc5)C(C)(C)C)CC4)nc3)nc2N(C)C1=O` [DB1113], for which the logFC in [2] (MAPKAPK3 (Q16644)) is −3.127. Further, the “logFC MAPKAPK3 (Q16644)” value in test [2] (direction of change down) is on record as −3.127.

For the compound `CC(C)(C)c1nc(-c2cccc(NS(=O)(=O)c3c(F)cccc3F)c2F)c(-c2ccnc(NCCOCCNC(=O)CCOCCOCCNc3cccc4c3C(=O)N(C3CCC(=O)NC3=O)C4=O)n2)s1` (stereo not shown) [DD.03.106], the “logFC TESK2 (Q96S53-1)” value in test [3] (direction of change down) is −0.3831. The “logFC TESK2” value in test [3] (protein TESK2 (Q96S53-1), down) was −0.3831.

As to `C[C@@H]1C[C@@H](O)c2ncnc(N3CCN(C(=O)[C@H](CNCCCCCCCCCCc4cccc5c4C(=O)N(C4CCC(=O)NC4=O)C5=O)c4ccc(Cl)cc4)CC3)c21` (stereo partly shown) [INY.03.041.01], the logFC in test [4] (experiment wp118) is listed as −2.258; in [4] (experiment wp135, 4 hr), −1.225. The “logFC of AKT1 (P31749)” value in test [4] (Experiment wp135, 4 hr) is given as −1.225; in test [4] (experiment wp118), −2.258.

`Cc1ncsc1-c1ccc([C@H](C)NC(=O)[C@@H]2C[C@@H](O)CN2C(=O)[C@@H](NC(=O)CCCCCN2CCN(c3ccc(Nc4ncc5scc(-c6cccc(NS(C)(=O)=O)c6)c5n4)cc3)CC2)C(C)(C)C)cc1` [RSS0680, (2S,4R)-1-((S)-3,3-Dimethyl-2-(6-(4-(4-((7-(3-(methylsulfonamido)phenyl)thieno[3,2-d]pyrimidin-2-yl)amino)phenyl)piperazin-1-yl)hexanamido)butanoyl)-4-hydroxy-N—((S)-1-(4-(4-methylthiazol-5yl)phenyl)ethyl)pyrrolidine-2-carboxamide]: the logFC in [5] is on record as −0.3389. The “logFC MAPKAPK5 (Q8IW41)” value in [6] (direction of change down) is listed as −0.3355. The “logFC MAPKAPK5” value in test [6] (protein MAPKAPK5 (Q8IW41), down) was −0.3355.

For the compound `CC(C)S(=O)(=O)c1ccccc1Nc1nc(Nc2ccc(N3CCN(CCOCCNC(=O)CNc4cccc5c4C(=O)N(C4CCC(=O)NC4=O)C5=O)CC3)cc2)ncc1Cl` (stereo not shown) [SK.3.91], in test [7] (direction of change down), the “logFC MAST3 (O60307)” value is recorded as −0.4984. Moreover, the “logFC MAST3” value in [7] (protein MAST3 (O60307), down) was −0.4984. Also, the “logFC CDK9 (P50750)” value in test [8] (Experiment wp160, 2 hr) is on record as −0.404; in test [8] (Experiment wp172) it was −1.423; in test [8] (experiment wp160, 4 hr), −1.068. In addition, the “logFC of CDK9 (P50750)” value in test [8] (Experiment wp160, 2 hr) is given as −0.404; in test [8] (Experiment wp172), −1.423; in [8] (experiment wp160, 4 hr), −1.068. Further, the “logFC of PRKAA1 (Q13131)” value is recorded as −0.3284 in test [9] (Experiment wp160, 2 hr); −0.4542 in test [9] (Experiment wp172); −0.6117 in test [9] (experiment wp160, 4 hr). Moreover, the “logFC PRKAA1 (Q13131)” value is −0.3284 in [9] (Experiment wp160, 2 hr); −0.6117 in test [9] (Experiment wp160, 4 hr); −0.4542 in test [9] (Experiment wp172). Moreover, in [10] (Experiment wp114, direction of change down), the “logFC TRIB3 (Q96RU7)” value is recorded as −1.211. Also, the “logFC TRIB3” value in [10] (protein TRIB3 (Q96RU7), experiment wp114, down) was −1.211.

With `CC(C)S(=O)(=O)c1ccccc1Nc1nc(Nc2ccc(N3CCN(CCOCCOCCNC(=O)CNc4cccc5c4C(=O)N(C4CCC(=O)NC4=O)C5=O)CC3)cc2)ncc1Cl` (stereo not shown) [TL12.186], the “logFC EEF2K (O00418)” value in test [11] (direction of change down) is recorded as −0.3443. For the same compound, in [11] (protein EEF2K (O00418), down), the “logFC EEF2K” value is −0.3443. Also, the “logFC FLT1 (P17948-1)” value in test [12] (direction of change down) is reported as −0.699. In addition, the “logFC FLT1” value in test [12] (protein FLT1 (P17948-1), down) is listed as −0.699.

Consider `Nc1ncc(-c2ccc(S(=O)(=O)N(CCCNC(=O)CCOCCOCCOCCOCCOCCNc3cccc4c3C(=O)N(C3CCC(=O)NC3=O)C4=O)C3CC3)cc2)cc1-c1ccc2c(c1)CCNC2=O` (stereo not shown) [WH.10417.099], for which the “logFC GSK3B” value in test [13] (Accession P49841-1, experiment wp172, direction down) is listed as −0.8298. The “logFC of GSK3B (P49841-1)” value in test [13] (Experiment wp172) is given as −0.8298.

In the case of `C=CCn1c(=O)c2cnc(Nc3ccc(N4CCN(CCCNc5cccc6c5C(=O)N(C5CCC(=O)NC5=O)C6=O)CC4)cc3)nc2n1-c1cccc(C(C)(C)O)n1` (stereo not shown) [ZNL.02.096], the “logFC DGKE” value in test [14] is −0.3512. Moreover, the “logFC GALK2” value in test [15] was −0.3724.
